Here are results for five compounds from patent publication US20250332180A1, “CANNABINOIDS AND IL-15 ACTIVATE NK CELLS” (The Regents of the University of California, priority 2022, published 2025).

In experiment [1] the test system is OSCCs. In words: Cell count of viable cells (Trypan Blue, light microscope). The note with it: CDDP 50 μg/mL, 24 hours. The format is cell-based, human. The source says: The number of viable cells was counted under light microscope using Trypan Blue staining. Compiled data from three independent experiments performed as shown.
The number of viable cells was counted under light microscope using Trypan Blue staining (Sigma, MO, USA).

The test system of experiment [2] is OSCCs. In words: Cell death assay (PI staining, flow cytometry). The format is cell-based, human. To be noted: CDDP 50 μg/mL, 24 hours. As for the experimental part:
No differences between untreated tumor cells and those treated with the DMSO vehicle alone in cell count or the amount of cell death in OSCCs and OSCSCs. […] Proportion of the live cells that had lost forward and side scatter were determined indicating decreased viability of the cells. In addition, the numbers of viable cells were determined after PI staining followed by flow cytometric analysis (FIG. 2A). OSCC tumor cells were treated as in FIG. 2A and the cells were analyzed by flow cytometry to determine the proportion of the live cells that had lost forward and side scatter indicating decreased viability of the cells (FIG. 2B) and the numbers of viable OSCC tumor cells were determined after PI staining followed by flow cytometric analysis (FIG. 2C). […] PI staining was used to determine the cell death by flow cytometry. One of four representative experiment is shown in (FIG. 2D). The compiled data of paired OSCCs and OSCSCs at the same concentration of WIN 55,212-2 treatment from four experiments is shown in (FIG. 2E). Four experiments were compiled and the % cell death of tumor cells by various WIN 55-212,2 concentrations (10, 25, 50 and 100 μM) were compared to the untreated control for both OSCC (FIG. 2F) and OSCSC (FIG. 2G). […] Non-linear regression was used to fit the curve of the % cell death induced by WIN 55-212,2 in various concentrations (10, 25, 50 and 100 μM) for both OSCC and OSCSC. […] The differences were clear within each independent experiment.
PI staining was used to determine the cell death by flow cytometry. Compiled data from four independent experiments performed is shown.

Experiment [3] concerns PL-12 tumor cells. In words: Cell death assay (PI staining, flow cytometry). The note with it: CDDP. It counts as cell-based, human. For orientation: Flow cytometry measures light scatter and fluorescence of single cells or particles in a stream.
Experiment [4] concerns OSCCs. Description: Microscopy of morphology and viability. It counts as cell-based, human. The note with it: CDDP 50 μg/mL, 24 h. As for the experimental part:
(§1) Chemical structure of WIN 55,212-2 (FIG. 7A). […] OSCCs and OSCSCs were treated with CDDP (50 μg/mL) and different concentrations of WIN 55,212-2 for 24 hours before the microscopic images were taken. Scale bar=50 μm (FIG. 7B).

The subject of experiment [5] is OSCSCs. Description: Microscopy of morphology and viability. The format is cell-based, human. To be noted: CDDP 50 μg/mL, 24 h. As for the experimental part: as §1
The test system of experiment [6] is MP2 tumor cells. Description: Microscopy of morphology and viability. It counts as cell-based, human. The note with it: CDDP 50 μg/mL, 24 hours. As for the experimental part:
(§2) MP2 and PL-12 tumor cells were treated with CDDP (50 μg/mL) and different concentrations of WIN 55,212-2 for 24 hours before the microscopic images were taken. Scale bar=50 μm.

Experiment [7] concerns PL-12 tumor cells. Description: Microscopy of morphology and viability. It counts as cell-based, human. The note with it: CDDP 50 μg/mL, 24 hours. As for the experimental part: as §2
Experiment [8] deals with anti-proliferative effects of radiation therapy. To be noted: previously reported; cited from earlier work.
In experiment [9] the test system is NK cells. In words: NK cell cytotoxicity in humanized BLT mice (4-hr Chromium release assay). The format is in vivo. The note with it: hu-BLT mice, every 2 days for 3 weeks; WIN 55,212-2 2 mg/kg IP; IL-15 5 μg/mice IP; preliminary experiments. As for the experimental part: Humanized BLT mice (hu-BLT; human-bone marrow/liver/thymus) were fed with, AJ2 (5×10^9 CFU/mice, every 2 days, Oral administration), WIN 55,212-2 (2 mg/kg, every 2 days, IP) and/or IL-15 (5 μg/mice, every 2 days, IP). After 3 weeks of treatment, immune cells were collected from peripheral blood, bone marrow and spleen, and CD3+ T cells were isolated from splenocytes with EasySep™ Human CD3 positive selection kit II (StemCell Tech.). PBMCs (0.5×10^6 cells) obtained from the peripheral blood were treated with IL-2 (1000 U/ml) and/or anti-CD16 antibody (BioLegend) (3 μg/ml) for 3 days, after which the cells were counted and different numbers of E:T ratios were used for the assessment of cytotoxicity using 4-hr Chromium release assay (FIG. 1A and FIG. 1B). The percentage specific cytotoxicity was calculated using the following formula (% cytotoxicity=(Experimental cpm/spontaneous cpm)/(total cpm−spontaneous cpm)) and the lytic unit 30 (Lu30/10^6) was calculated by using the inverse of the number of effector cells needed to lyse 30% of tumor target cells×100. Killing per % NK cells was determined by dividing the total Lytic unit 30 by the percentage of NK cells in each sample (FIG. 1A and FIG. 1B). […]

Experiment [10] deals with IFN-γ secretion. Description: IFN-γ secretion of immune cells in humanized BLT mice (ELISA, ELISpot). It counts as in vivo. To be noted: hu-BLT mice, every 2 days for 3 weeks; WIN 55,212-2 2 mg/kg IP; IL-15 5 μg/mice IP. As for the experimental part: Humanized BLT mice (hu-BLT; human-bone marrow/liver/thymus) were fed with, AJ2 (5×10^9 CFU/mice, every 2 days, Oral administration), WIN 55,212-2 (2 mg/kg, every 2 days, IP) and/or IL-15 (5 μg/mice, every 2 days, IP). After 3 weeks of treatment, immune cells were collected from peripheral blood, bone marrow and spleen, and CD3+ T cells were isolated from splenocytes with EasySep™ Human CD3 positive selection kit II (StemCell Tech.). PBMCs (0.5×10^6 cells) obtained from the peripheral blood were treated with IL-2 (1000 U/ml) and/or anti-CD16 antibody (BioLegend) (3 μg/ml) for 3 days, after which the cells were counted and different numbers of E:T ratios were used for the assessment of cytotoxicity using 4-hr Chromium release assay (FIG. 1A and FIG. 1B). The percentage specific cytotoxicity was calculated using the following formula (% cytotoxicity=(Experimental cpm/spontaneous cpm)/(total cpm−spontaneous cpm)) and the lytic unit 30 (Lu30/10^6) was calculated by using the inverse of the number of effector cells needed to lyse 30% of tumor target cells×100. Killing per % NK cells was determined by dividing the total Lytic unit 30 by the percentage of NK cells in each sample (FIG. 1A and FIG. 1B). PBMCs (0.5×10^6 cells) obtained from the blood were treated with IL-2 (1000 U/ml) and/or anti-CD16 antibody (BioLegend) (3 μg/ml) for 24 hours, after which the supernatants were collected to measure IFN-g secretion using ELISA (BioLegend, San Diego) (FIG. 1C). ELISpot was used to determine the IFN-γ spots in PBMC (FIG. 1D), bone marrow (FIG. 1E), spleen (FIG. 1F) and CD3+ T cells (FIG. 1G).
Humanized BLT mice (hu-BLT; human-bone marrow/liver/thymus) were fed with, AJ2 (5×10^9 CFU/mice, every 2 days, Oral administration), WIN 55,212-2 (2 mg/kg, every 2 days, IP) and/or IL-15 (5 μg/mice, every 2 days, IP). After 3 weeks of treatment, immune cells were collected from peripheral blood, bone marrow and spleen, and CD3+ T cells were isolated from splenocytes with EasySep™ Human CD3 positive selection kit II (StemCell Tech.). PBMCs (0.5×10^6 cells) obtained from the peripheral blood were treated with IL-2 (1000 U/ml) and/or anti-CD16 antibody (BioLegend) (3 μg/ml) for 3 days, after which the cells were counted and different numbers of E:T ratios were used for the assessment of cytotoxicity using 4-hr Chromium release assay (FIG. 6A and FIG. 6B). The percentage specific cytotoxicity was calculated using the following formula (% cytotoxicity=(Experimental cpm/spontaneous cpm)/(total cpm−spontaneous cpm)) and the lytic unit 30 (Lu30/10^6) was calculated by using the inverse of the number of effector cells needed to lyse 30% of tumor target cells×100. Killing per % NK cells was determined by dividing the total Lytic unit 30 by the percentage of NK cells in each sample (FIG. 6A and FIG. 6B). PBMCs (0.5×10^6 cells) obtained from the blood were treated with IL-2 (1000 U/ml) and/or anti-CD16 antibody (BioLegend) (3 μg/ml) for 24 hours, after which the supernatants were collected to measure IFN-g secretion using ELISA (BioLegend, San Diego) (FIG. 6C). ELISpot was used to determine the IFN-γ spots in PBMC (FIG. 6D), bone marrow (FIG. 6E), spleen (FIG. 6F) and CD3+ T cells (FIG. 6G).
For orientation: ELISA stands for enzyme-linked immunosorbent assay.

For `N.N.[Cl][Pt][Cl]` [CDDP, cis-diamminedichloridoplatinum(II)], the “inhibition of cell growth, OSCCs compared with OSCSCs” value in experiment [1] is “inhibit cell growth of OSCCs more than those seen with OSCSCs”. Further, in experiment [2], the “cell death, OSCCs compared with OSCSCs” value is recorded as “triggered more cell death in OSCCs when compared to OSCSCs”. The “cell death, PL-12 compared with MP2” value in experiment [3] (compiled data) is on record as “similar”; in experiment [3] (representative experiment), “higher in PL-12”. Moreover, the morphology and attachment entry in experiment [4] was “loss of morphology, and the majority were detached from the plates”; in experiment [5], “the majority of these cells were still attached to the cell culture plate”. For the same compound, the morphology entry is “affected both PL-12 and MP2 tumors morphologically” in experiment [6]; “affected both PL-12 and MP2 tumors morphologically” in experiment [7].
Regarding `C=C(C)[C@@H]1CCC(C)=C[C@H]1c1c(O)cc(CCCCC)cc1O` [CBD], the “enhancement of anti-proliferative effects of radiation therapy” value (from here on “enhancement”) in experiment [8] is on record as “failed to enhance”.
Take `CCCCCCC(C)(C)c1cc(O)c2c(c1)OC(C)(C)C1CCC(=O)CC21` (stereo not shown) [nabilone]: in experiment [8], the “enhancement” value is reported as “failed to enhance”.
Turning to `CCCCCc1cc(O)c2c(c1)OC(C)(C)[C@@H]1CCC(C)=C[C@@H]21` [THC, tetrahydrocannabinol], the “enhancement” value in [8] is “failed to enhance”.
As to “IL-15: IL-15, given by intraperitoneal injection 5 μg/mice”, the “cytotoxic function of NK cells in PBMC” value in [9] was “increased the NK cytotoxicity”. Besides, the “IFN-γ secretion (ELISA, PBMCs)” value in experiment [10] is “increased”.
